Source: PMC7583056, “Synthesis, Characterisation and In Vitro Anticancer Activity of Catalytically Active Indole-Based Half-Sandwich Complexes” (Molecules, 2020)
Read-outs that look alike come from different tables or passages of the source.

Legend:
[1] = system: PNT2 cells; test: Chemosensitivity assay (MTT) in PNT2 cells; format: cell-based; conditions: for IC50: 24 h exposure + 48 h recovery, MTT, mean ± SD
Source text: (§1) The antiproliferative activity of the ind-py ligand and of complexes 1–4 against ovarian cancer A2780 (cisplatin sensitive) and A2780cisR (cisplatin resistant) cell lines was studied. The IC50 values obtained for all the complexes are shown in Table 2, together with values for cisplatin, which was used as a positive control (untreated cells for 100% viability as negative control). […] One of the major limitations of existing anticancer drugs is their poor selectivity towards cancer cells. Comparing the response of the cancer cell lines to the normal PNT2 cells provides a preliminary indication towards the selectivity of the compounds.
(§2) In vitro chemosensitivity tests were performed against A2780, A2780cisR and PNT2 cells. Cells were routinely maintained as monolayer cultures in RPMI medium supplemented with 10% foetal calf serum, penicillin (100 I.U./mL) and streptomycin (100 μg/mL), sodium pyruvate (1 mM) and L-glutamine (2 mM). For chemosensitivity studies, cells were incubated in 96-well plates at a concentration of 7.5 × 10^3 cells per well and the plates were incubated for 24 h at 37 °C and a 5% CO2 humidified atmosphere prior to drug exposure.
(§3) Complexes were dissolved in DMSO to provide stock solutions, which were further diluted with media to provide a range of final concentrations. Drug-media solutions were added to cells (the final concentration of DMSO was less than 1% (v/v) in all cases) and incubated for 24 h at 37 °C and 5% CO2 humidified atmosphere. The drug-media was removed from the wells and the cells were washed with PBS (100 μL, twice), and 100 μL of complete fresh media were added to each well. The plates were further incubated for 48 h at 37 °C in a 5% CO2 humidified atmosphere to allow for a period of recovery. 3-(4,5-dimethylthiazol-2-yl)-2,5-diphenyltetrazolium bromide (MTT) (20 μL, 2.5 mg/mL) was added to each well and incubated for 2 h at 37 °C and 5% CO2 humidified atmosphere. All solutions were then removed and 100 μL of DMSO was added to each well in order to dissolve the purple formazan crystals. A Thermo Scientific Multiskan EX microplate photometer was used to measure the absorbance in each well at 570 nm. Cell survival was determined as the absorbance of treated cells divided by the absorbance of controls and expressed as a percentage. The IC50 values were determined from plots of % survival against drug concentration. Each experiment was repeated in triplicates of triplicates and a mean value was obtained and stated as IC50 (μM) ± SD. Cisplatin was also used as a positive control.

[2] = system: A2780 cells; test: Chemosensitivity assay (MTT) in A2780 cells; format: cell-based; conditions: for IC50: 24 h exposure + 48 h recovery, MTT, mean ± SD, read-out: IC50 A2780
Source text: as §1, §2, §3

[3] = system: A2780cisR cells; test: Chemosensitivity assay (MTT) in A2780cisR cells; format: cell-based; conditions: for IC50: 24 h exposure + 48 h recovery, MTT, mean ± SD
Source text: as §1, §2, §3

[4] = Stability and aquation in MeOD/D2O by 1H-NMR; format: physicochemical; conditions: MeOD/D2O 1:1 v/v, 1.1 mM, 298 K, over 24 h
Description: Owing to the limited aqueous solubility of the complexes, all the reactivity experiments were performed using a mixture MeOD/D2O (1:1 v/v) as a solvent. The stability of complexes 1–4 in MeOD/D2O was studied via ^1H-NMR spectroscopy over a period of 24 h. […] The stability of complexes 1–4 in dimethylsulfoxide (DMSO;1.1 mM) was also studied by ^1H-NMR spectroscopy over a period of 24 h (Figure S1). […] The ligand ind-py is also stable in MeOD/D2O over 24 h (Figure S1E).
Aquation of the monodentate ligand (X) is a common behaviour for half-sandwich complexes of the type [(arene/Cp)M(NUN)X] and it is usually considered an activation step, which allows further reactions with the corresponding targets. To study if aquation of complexes 1–4 occurs in MeOD/D2O (1:1 v/v), experiments in the presence of either one molar equivalent of silver nitrate (to force the release of the monodentate Cl^- ligand), or NaCl (to block hydrolysis), were performed.
Complexes 1–4 were dissolved in MeOD (2.2 mM) and diluted to a final concentration of 1.1 mM with either MeOD or D2O. ^1H-NMR spectra were recorded at t ≤ 10 min, 12 h and 24 h. The samples were then reacted with either 1 mol. equiv. of silver nitrate to obtain the fully hydrolysed species or NaCl to block hydrolysis.

| Compound | IC50 [1] [µM] | IC50 [2] [µM] | IC50 [3] [µM] | Cytotoxicity against PNT2 (in words) ([1]; Figure S14) | IC50 ([1]; Homo sapiens, PNT2) [µM] | Cytotoxicity against A2780 (in words) ([2]; Figure S14) | IC50 ([2]; Homo sapiens, A2780) [µM] | Stability in MeOD/D2O [4] | Cytotoxicity against A2780cisR (in words) ([3]; Figure S14) | IC50 ([3]; Homo sapiens, A2780cisR) [µM] |
| --- | --- | --- | --- | --- | --- | --- | --- | --- | --- | --- |
| N.N.[Cl][Pt][Cl] [Cisplatin, reference compound] | 43 ± 3 | 10.3 ± 0.5 | 22.4 ± 0.5 |  |  |  |  |  |  |  |
| c1ccc(-c2cc3ccccc3[nH]2)nc1 [Ind-py, 2-(2-pyridinyl)-1H-indole, reference compound] |  |  |  | non-cytotoxic | > 100 | non-cytotoxic | > 100 | stable | non-cytotoxic | > 100 |
